Here are results for 82 molecules from patent US20090092975A1, “SELECTABLE MARKER” (Mologic Ltd, priority 2005, published 2009).

The test system of one data set is Saccharomyces cerevisiae strain 62 expressing PAD1. The format is cell-based. The note with it: predicted decarboxylation product in headspace; weak acid 0.5 mM, YEPD pH 4, 10 h at 28° C.; 0 = no decarboxylation. The procedure:
S. cerevisiae strain 62 (which expresses the PAD1 gene) was cultured for 48 hr in YEPD pH 4, Yeast extract 10 g, Peptone 20 g, Glucose 20 g, at 28° C. in a shake flask, 120 rpm. The stationary-phase cells were inoculated into capped 28 ml McCartney bottles containing 10 mls YEPD pH 4, at 1 million cells per ml. Each bottle also contained one of 70 substrate weak acids at 0.5 mM. Tubes were then shaken for 10 h at 28° C.
1 ml samples of the headspace were passed into stainless-steel thermal desorption tubes, followed by a 10 ml air flush. (Desorption tubes—89 mm×5 mm ID, packed with 200 mg Tenax TA 60-80 mesh, Phase Separations, UK).
Thermal desorption tubes were placed in a Perkin Elmer ATD400 thermal desorption system, and the volatiles transferred to the Gas Chromatograph in a 2 stage process. Primary desorption was 250° C. for 10 min with a helium flow of […]. Using a split ratio of 1:1, volatiles were retained on a cold trap (25 mg Tenax TA) held at −30° C. Secondary desorption was carried out by rapidly heating and holding the cold trap at 250° C. for 2 min, with a helium flow of 20 ml/min and split ratio of 19:1. A DB624 column {30 m×0.32 mm, 1.8 microns film thickness} installed in a Carbo Erba GC800 was used to achieve separation and introduction of the volatile to the mass spectrometer. The column temperature was held at 40° C. for 2 min then increased at 5° C./min to 250° C. The column outlet was coupled via a heated transfer line at 250° C. into the ion source of the mass spectrometer operated at 70 eV in electron ionization (EI) mode. The source temperature was at 200° C. and the detector photomultiplier at 500V. Full scan MS data acquisition was carried out from m/z 30 to 300, with 0.6 sec scan and 0.05 sec inter scan delay.
The results are shown in Table 3, in each case the “predicted product” being the product which would be produced if decarboxylation of the weak acid were to take place.
Consider `O=C(O)C=Cc1ccc(F)c(F)c1F` [2,3,4-Trifluoro-cinnamic acid], for which the “GCMS Peak area” value is recorded as 0.

Take `COc1ccc(C=CC(=O)O)c(OC)c1OC` [2,3,4-Trimethoxy-cinnamic acid]: the “GCMS Peak area” value is 0.

As to `O=C(O)C=Cc1ccc(F)cc1F` [2,4-Difluoro-cinnamic acid], the “GCMS Peak area” value is given as 35698.

Regarding `COc1ccc(C=CC(=O)O)c(OC)c1` [2,4-Dimethoxy-cinnamic acid], the “GCMS Peak area” value is on record as 30.

Consider `O=C(O)C=Cc1ccccc1Br` [2-Bromo-cinnamic acid], for which the “GCMS Peak area” value was 2912.

Turning to `O=C(O)C=Cc1ccccc1C(=O)O` [2-Carboxy-cinnamic acid], the “GCMS Peak area” value is reported as 0.

`O=C(O)C=Cc1ccccc1Cl` [2-Chloro-cinnamic acid]: the “GCMS Peak area” value is reported as 4911.

`CCOc1ccccc1C=CC(=O)O` [2-Ethoxycinnamic acid]: the “GCMS Peak area” value is 193.

For `O=C(O)C=Cc1ccccc1F` [2-Fluoro-cinnamic acid], the “GCMS Peak area” value is recorded as 3760.

For `COc1ccccc1C=CC(=O)O` [2-Methoxy-cinnamic acid], the “GCMS Peak area” value is given as 128.

With `Cc1ccccc1C=CC(=O)O` [2-Methyl-cinnamic acid], the “GCMS Peak area” value was 18046.

As for `O=C(O)C=Cc1ccccc1[N+](=O)[O-]` [2-Nitro-cinnamic acid], the “GCMS Peak area” value is recorded as 0.

As for `O=C(O)C=Cc1ccccc1C(F)(F)F` [2-Trifluoromethyl-cinnamic acid], the “GCMS Peak area” value is listed as 1440.

On to `O=C(O)C=Cc1cccc(Br)c1` [3-Bromo-cinnamic acid], for which the “GCMS Peak area” value was 248.

Consider `O=C(O)C=Cc1cccc(Cl)c1` [3-Choro-cinnamic acid], for which the “GCMS Peak area” value is reported as 907.

Consider `O=C(O)C=Cc1cccc(F)c1` [3-Fluoro-cinnamic acid], for which the “GCMS Peak area” value is 14027.

On to `COc1cccc(C=CC(=O)O)c1` [3-Methoxy-cinnamic acid], for which the “GCMS Peak area” value is 178.

Take `Cc1cccc(C=CC(=O)O)c1` [3-Methyl-cinnamic acid]: the “GCMS Peak area” value is 8195.

In the case of `O=C(O)C=Cc1cccc([N+](=O)[O-])c1` [3-Nitro-cinnamic acid], the “GCMS Peak area” value is listed as 0.

Regarding `O=C(O)C=Cc1cccc(C(F)(F)F)c1` [3-Trifluoromethyl-cinnamic acid], the “GCMS Peak area” value is reported as 946.

`O=C(O)C=Cc1ccc(C=CC(=O)O)cc1` [3-[4-(2-Carboxy-vinyl)-phenyl]-acrylic acid]: the “GCMS Peak area” value is 0.

As for `O=C(O)C=Cc1ccc(Br)cc1` [4-Bromo-cinnamic acid], the “GCMS Peak area” value is recorded as 1038.

On to `O=C(O)C=Cc1ccc(Cl)cc1` [4-Choro-cinnamic acid], for which the “GCMS Peak area” value is on record as 12391.

On to `CN(C)c1ccc(C=CC(=O)O)cc1` [4-Dimethylamino-cinnamic acid], for which the “GCMS Peak area” value was 0.

Consider `CCOc1ccc(C=CC(=O)O)cc1` [4-Ethoxycinnamic acid], for which the “GCMS Peak area” value is listed as 227.

With `O=Cc1ccc(C=CC(=O)O)cc1` [4-Formyl-cinnamic acid], the “GCMS Peak area” value is listed as 0.

Tested on in the next data set: not given
The settings on record: Table 1, monocarboxylic weak acids; cited from earlier work.
On to `O=C(O)C1(C(=O)O)CC1` [1,1-Cyclopropanedicarboxylic acid], for which the Pka was 3.114.

On to `O=C(O)C1=CCCCC1` [1-Cyclohexene-1-carboxylic acid], for which the Pka is listed as 3.7528.

With `O=C(O)C1=CCCC1` [1-Cyclopentene-1-carboxylic acid], the Pka was 3.7528.

As for `CC1(C(=O)O)CC1` [1-Methyl-cyclopropane carboxylic acid], the Pka is reported as 5.1.

`CCC(C)(C)C(=O)O` [2,2-Dimethylbutyric acid]: the Pka is listed as 5.03.

Consider `CC#CC(=O)O` [2-Butynoic acid], for which the Pka is listed as 2.6546.

In the case of `C=C(Cl)C(=O)O` [2-Chloroacrylic acid], the Pka is listed as 2.6975.

As to `O=C(O)c1ccccc1Cl` [2-Chlorobenzoic acid], the Pka was 2.89.

Turning to `CC(Cl)C(=O)O` (stereo not shown) [2-Chloropropionic acid], the Pka was 2.897.

For `O=C(O)CC1C=CCC1` (stereo not shown) [2-Cyclopentene-1-acetic acid], the Pka is given as 4.61.

`CCC(CC)C(=O)O` [2-Ethylbutyric acid]: the Pka is reported as 4.71.

As for `O=C(O)c1ccco1` [2-Furoic acid], the Pka was 3.13.

Turning to `CC1CC1C(=O)O` (stereo not shown) [2-Methyl-cyclopropane carboxylic acid], the Pka was 4.8.

Take `CCCC(C)C(=O)O` (stereo not shown) [2-Methylvaleric acid]: the Pka is 4.79.

In the case of `O=C(O)c1ccccc1[N+](=O)[O-]` [2-Nitrobenzoic acid], the Pka was 2.47.

`CC(C(=O)O)c1ccccc1` (stereo not shown) [2-Phenylpropionic acid]: the Pka is on record as 4.0606.

Consider `CC(C)(C)CC(=O)O` [3,3-Dimethylbutyric acid], for which the Pka is 4.961.

In the case of `O=C(O)c1cccc(Cl)c1` [3-Chlorobenzoic acid], the Pka is given as 3.81.

Turning to `O=C(O)CCCl` [3-Chloropropionic acid], the Pka is given as 3.8924.

For the molecule `O=C(O)C1CC=CCC1` (stereo not shown) [3-Cyclohexene-1-carboxylic acid], the Pka was 4.593.

As to `O=C(O)CCC1CCCC1` [3-Cyclopentylpropionic acid], the Pka was 4.81.

Consider `CCCCCCC=CCC(=O)O` [3-Decenoic acid], for which the Pka is on record as 4.728.

As for `CCCC=CCC(=O)O` [3-Heptenoic acid], the Pka is listed as 4.7696.

For `CCC(C)CC(=O)O` (stereo not shown) [3-Methylvaleric acid], the Pka is given as 4.7868.

`O=C(O)c1cccc([N+](=O)[O-])c1` [3-Nitrobenzoic acid]: the Pka is 3.46.

With `CCCCC=CCC(=O)O` [3-Octenoic acid], the Pka is 4.7926.

As for `CCc1ccc(C(=O)O)cc1` [4-Ethylbenzoic acid], the Pka is reported as 4.35.

Consider `CC(C)CCC(=O)O` [4-Methylvaleric acid], for which the Pka is on record as 4.8689.

Turning to `C=CCCC(=O)O` [4-Pentenoic acid], the Pka was 4.6364.

Regarding `C#CCCC(=O)O` [4-Pentynoic acid], the Pka was 4.1342.

Turning to `O=C(O)CCCc1ccccc1` [4-Phenylbutyric acid], the Pka is reported as 4.76.

With `C=CCCCCC(=O)O` [6-Heptenoic acid], the Pka is given as 4.81.

For `C#CCCCCC(=O)O` [6-Heptynoic acid], the Pka is given as 4.71.

Take `CC(C)=CCC[C@@H](C)CC(=O)O` [(R)(+)Citronellic acid]: the Pka was 4.752.

In the case of `CC(C)c1ccc(C(=O)O)cc1` [Cumic acid], the Pka is on record as 4.35.

`O=C(O)C1CCCCCC1` [Cycloheptanecarboxylic acid]: the Pka was 4.9518.

On to `O=C(O)CC1CCCCCC1` [Cycloheptylacetic acid], for which the Pka is reported as 4.822.

In the case of `O=C(O)CCCC1CCCCC1` [Cyclohexanebutyric acid], the Pka is on record as 4.9061.

`O=C(O)CC1CCCCC1` [Cyclohexylacetic acid]: the Pka is reported as 4.8806.

Consider `O=C(O)C1CCCC1` [Cyclopentanecarboxylic acid], for which the Pka was 4.8.

Consider `O=C(O)CC1CCCC1` [Cyclopentylacetic acid], for which the Pka is recorded as 4.76.

For the molecule `O=C(O)CC1CC1` [Cyclopropylacetic acid], the Pka is reported as 4.8873.

In the case of `C=C(C)C(=O)O` [Methacrylic acid], the Pka is given as 4.61.

On to `O=C(O)COc1ccccc1` [Phenoxyacetic acid], for which the Pka is recorded as 3.17.

As to `O=C(O)Cc1ccccc1` [Phenylacetic acid], the Pka is 4.31.

For the molecule `C#CC(=O)O` [Propiolic acid], the Pka was 2.39.

Take `O=C(O)c1ccsc1` [Thiophene-3-carboxylic acid]: the Pka was 4.08.

As to `C/C=C(\C)C(=O)O` [Tiglic acid], the Pka is 4.4564.

Consider `CCCCCCCCCCC(=O)O` [Undecanoic acid], for which the Pka was 5.03.

`COc1cc(C(=O)O)ccc1O` [Vanillic acid]: the Pka was 4.51.

Regarding `C=CCC(=O)O` [Vinylacetic acid], the Pka is recorded as 4.51.

With `O=C(O)/C=C\Cl` [cis-3-Chloroacrylic acid], the Pka is reported as 3.2506.

As for `COc1cccc(C(=O)O)c1` [m-Anisic acid], the Pka is listed as 4.09.

`Cc1ccccc1C(=O)O` [o-Toluic acid]: the Pka is 3.98.

On to `O=C(O)/C=C/Cl` [trans-3-Chloroacrylic acid], for which the Pka is recorded as 3.2506.

As to `C/C=C/CC(=O)O` [trans-3-Pentenoic acid], the Pka is recorded as 4.36.
